Measurements taken from publication PMC12775124, “CUL4A-DDB1-DCAF10 is an N-recognin for N-terminally acetylated Src kinases” (Nature Communications, 2026).

Experiments:
DCAF10 [1] = assay: Peptide pull-down with quantitative MS, mouse liver lysate, DCAF10; format: binding
Procedure: Biotinylated 10-mer Nt-peptides (Nt-free, Nt-acetylated, and, where indicated, Nt-myristoylated; sequences in Supplementary Table 1) were synthesized with a C-terminal Lys3 spacer and biotin, immobilized on magnetic streptavidin beads, and incubated with HeLa or mouse liver lysates. After standardized washes, bound proteins were on-bead reduced/alkylated, digested with LysC/trypsin, desalted, and analysed by LC-MS in DIA mode (Orbitrap Exploris 480) as described previously[24]. Variants included endogenous Nt-sequences, swap and mutant (Ala-Ala-Ala or Nt-amino acids) peptides, and pairwise comparisons of conditions of interest.
Briefly, magnetic streptavidin beads (DynabeadsTM
Beads were then washed three times with PBS.
210 washing, 1 mg of HeLa lysates or 2 mg of liver lysates was taken, and lysis buffer (75
Lysates were incubated with streptavidin
HeLa pull-downs were washed twice with lysis buffer and twice
Liver pulldowns were washed twice with cold low salt buffer (50 mM
220 individually ventilated cages under a 12-h light/dark cycle and were provided with sterile
No animal procedures were performed specifically for this
230 of 1:100), and desalted/concentrated on C18 reversed phase stage tips as previously
(§2) 526 Mass spectrometry measurements and raw file processing
527 Samples (peptide pull-downs, IPs and high-pH fractionations) were separated on an […]

[2] = system: DLD-1 Flp-In T-REx and Lyn KO cells; assay: Level of Lyn / Lyn-GFP variants after NMT1/2 and DCAF10 siRNA, Western blot; format: cell-based, human
Text: To further investigate the role of the Nt-amino acid and its modification in DCAF10 recognition and DCAF10-dependent ubiquitination, we used the CRISPR/Cas9 technique to knock out Lyn in DLD-1 cell lines with T-REx Flp-In background (DLD-1 Lyn KO Flp-In T-REx) (Supplementary Fig. 7a–c). We then integrated Lyn^WT-GFP and two Nt-mutants (Lyn^G2A-GFP and Lyn^G2P-GFP) under a doxycycline-inducible promoter into the Flp-In cassette. Alanine (G2A) is expected to be efficiently acetylated by NatA, generating an Nt-acetylated Lyn mutant. Conversely, the proline (G2P) mutant, is expected not to be acetylated and may retain a free N-terminus[3],[36],[37]. Doxycycline-induced expression of Lyn^WT-GFP, Lyn^G2A-GFP, and Lyn^G2P-GFP was confirmed by Western blot, MS, and fluorescence microscopy (Supplementary Figs. 7d, e; 8a and Supplementary Data 6). While all constructs were ~2–5-fold higher expressed than endogenous Lyn, G2A and G2P were further elevated relative to WT, which may reflect increased stability when Nt-Gly/acetylation is altered (Supplementary Fig. 7e). […] Lyn^WT-GFP mirrored the behavior of endogenous Lyn under NMT1/2 siRNA treatment. Lyn levels decreased with NMT1/2 KD, but were rescued when siRNAs targeting both NMT1/2 and DCAF10 were applied (Fig. 6a, b). […] The weaker reduction of Lyn^WT-GFP may result from Lyn overexpression and the limiting availability of DCAF10.
(§1) Fig. 6 N-terminal glycine mutation abolishes DCAF10-dependent stability and ubiquitination. a DLD-1 Flp-In T-REx cells and Lyn KO cells expressing Lyn^WT-GFP, Lyn^G2A-GFP, or Lyn^G2P-GFP were induced for 24 h with 100 ng/mL doxycycline. Cells were treated with NMT1/2 siRNA, DCAF10 siRNA, or both (or left untreated) for 72 h. Representative WBs are shown. Filled circles represent siRNA treatment, empty circles untreated. b WB quantifications of Lyn levels normalized to vinculin. Purple: untreated with NMT1/2 siRNA; blue: treated with NMT1/2 siRNA. Mean ± s.d. with individual data points are shown (n = 3 independent biological replicates). c Schematic of ubiquitination experiments. Created in BioRender. […] Lysates have been treated with NMT1/2 RNAi for 72 h. i Quantification of in vitro ubiquitination assays. Mean ± s.d. with individual data points are shown (n = 3 independent ubiquitination assays). Volcano plots of Lyn-GFP^WT binding partners: j NMT1/2 siRNA ± doxycycline (Dox); k Control ± doxycycline; l NMT1/2 siRNA vs. control both with doxycycline. The −log10 adjusted p-value (two-sided Student’s t test with permutation-based multiple-testing correction; y-axis) is plotted against the log2 fold change (x-axis). Threshold for significance: −log10 p-value ≥ 1.3 (p ≤ 0.05), log2 fold change ≤ −1 or ≥ 1. DCAF10 and Lyn-GFP are marked in green, significant binding partners in purple and in blue, respectively. Source data are provided as a Source data file.
DLD-1 Lyn knockout (KO) Flp-In T-REx cells were generated by CRISPR/Cas9 electroporation using two guide RNAs targeting the LYN locus. Editing and clone validation were confirmed by genomic sequencing, Western blotting, and MS[51]. Stable cell lines expressing doxycycline-inducible Lyn-GFP (WT, G2A, or G2P) were established by FRT/Flp-mediated recombination and validated by antibiotic selection, Western blotting, and fluorescence microscopy. Detailed protocols are provided in the Supplementary Methods and Tables.
461 electroporated using the CM137 program. Following electroporation, the cells were kept […]

[3] = system: DLD-1 Lyn KO Flp-In T-REx cells; assay: Direct ubiquitin blot of Lyn-GFP immunoprecipitates; format: cell-based, human; conditions: anti-GFP IP, anti-Ub blot, n = 3
Procedure: as §1, with “Threshold for significance: −log10 p-value ≥ 1.3 (p ≤ 0.05), log2 fold change ≤ −1 or ≥ 1. DCAF10 and Lyn-GFP are marked in green, significant binding partners in purple and in blue, respectively. Source data are provided as a Source data file.” left out
We next assessed the role of the Lyn Nt-residue for ubiquitination by performing two complementary experimental set-ups (Fig. 6c). […]

DCAF10 [4] = assay: Anti-GFP immunoprecipitation of Lyn-GFP with MS, DCAF10; format: binding, human; conditions: anti-GFP IP, NMT1/2 siRNA and control
Procedure: 494 induction using GFP-Trap magnetic agarose beads. Briefly, 10 µL of bead slurry per
495 reaction was equilibrated three times with ice-cold lysis buffer (75 mM HEPES pH 7.5,
497 supplemented with 1mM DTT, PhosSTOP, and Protease Inhibitor Cocktail). Then, 500
498 µL of each lysate sample (control, dox induction, and NMT1/2 knockdown with or
499 without dox induction) containing approximately 300 µg total protein, were added to
500 tubes containing the equilibrated beads. Samples were rotated end-over-end for 1.5–2 h
After incubation, the beads were washed twice with 500 µL of cold lysis buffer
502 and twice with 500 µL of cold lysis buffer lacking NP-40, glycerol, DTT, phosSTOP, and
503 Protease Inhibitor Cocktail. Finally, the immunoprecipitates were resuspended in 50 µL
504 of 8 M urea, incubated at 25°C for 30 min, and stored at -20°C prior to on-bead digestion
Each experimental condition was performed in
as §2
527 Samples (peptide pull-downs, IPs and high-pH fractionations) were separated on an
528 EASY-nLC 1200 HPLC system (Thermo Fisher Scientific, Waltham, MA, USA) using
529 in-house-packed 50-cm reversed-phase columns (75 cm diameter, 1.9 mm C18 ReproSil
530 particles, Dr. Maisch GmbH) (60°C at 300 nL/min flow rate with an 83 min gradient from […]
536 sec cycle time) (data points per peak = 6). Cycle times were calculated based on the […]

Substance	DCAF10 binding (in words) (DCAF10 [1])	Level decrease following NMT1/2 KD ([2]; DLD-1, 72 h NMT1/2 siRNA, 24 h doxycycline 100 ng/mL, WB/vinculin, average, n = 3)	Dependency on NMT1/2 and DCAF10 (in words) ([2]; DLD-1, 72 h siRNA)	Level increase upon combined NMT1/2 and DCAF10 KD ([2]; DLD-1, 72 h siRNA, WB/vinculin, n = 3)	Ubiquitination in cells (in words) [3]	Interaction with DCAF10 (in words) (DCAF10 [4])
GCIKSKGKDSKK [Ac-Lyn, Nt-peptide of Lyn (aa 1–10 + KKK-biotin), Nt-acetylated]	confirmed DCAF10 binding	–	–	–	–	–
Lyn^WT-GFP: doxycycline-inducible C-terminally GFP-fused Lyn in DLD-1 Lyn KO cells	–	21%	remained dependent on NMT1/2 and DCAF10	41.7%	ubiquitinated under both conditions, with a stronger signal in controls	significantly interacted with DCAF10 under both NMT1/2 siRNA and control conditions, with significant enrichment upon NMT1/2 KD
